The term kon denotes the second-order rate constant of association. As usually defined, the koff is a measure of how fast the partners let go of each other.

Series [1] concerns the target T1, human MDM2 (residues 2–125) (Homo sapiens, UniProt Q00987).
T1 construct: human MDM2 (residues 2–125); made in house; host or cells: E. coli BL21 (DE3)
Briefly: Isothermal titration calorimetry of p53-peptide binding to MDM2. Particulars: ITC, 15 °C, 50 mM Tris-HCl pH 8.0, 250 mM NaCl, 0.5 mM TCEP; for ΔH of binding: repeated twice. The method, then: Protein concentration was determined from the absorbance of its seven Tyr residues.
Peptide binding to MDM2 was measured by using an Auto-iTC200 (Malvern Instruments, Malvern UK), as described[24],[37]. Data acquisition was carried out with a reference power of 10 µcal/s, initial delay of 60 s, spacing between injections of 150 s. In a typical ITC experiment, the p53 peptide was loaded into a 40 μl syringe and the protein was placed into the sample cell. The sequence of injections consisted of one 0.5 μl injection followed by 19 injections of 2 μl each. Control experiments loading peptide into buffer solution were also carried out for each peptide. Experiments were performed with freshly prepared protein solutions, at 15 °C in the same buffer used in fluorescence experiments. ITC experiments were performed at 15 °C rather than 25 °C to avoid aggregation of MDM2.
Each peak was integrated using NITPIC software. The areas of the peaks are related to the heat exchanged upon binding and/or dilution. This heat was corrected of the heat of dilution (i.e., the average heat of the injections after the equilibrium has reached the saturation). Titration with each peptide was repeated twice.

Series [2] has as its target T1, human MDM2 (residues 2–125). Briefly: Stopped-flow fluorescence kinetics of p53-peptide binding to MDM2. Particulars: 15 °C; for kon / koff: stopped-flow Trp fluorescence, 50 mM Tris-HCl pH 8.0, 250 mM NaCl, 0.5 mM TCEP, peptide 0.125 μM, ± fitting error; for kon: MDM2 1–3 μM, pseudo-first order, slope, read-out: kon 10^6; for koff: y-axis intercept of pseudo-first-order plot. The method, then:
Expression and purification of human MDM2 (residues 2–125) was carried out as described[23] in BL21 (DE3) cells. […] Protein concentration was determined from the absorbance of its seven Tyr residues.
The kinetics of the MDM2/p53-peptide interaction was measured at 15 °C using an Applied Photophysics stopped-flow fluorimeter in the same buffer as that used in the equilibrium fluorescence experiments. The experimental procedure has been described previously. Association kinetics was measured under pseudo-first order conditions, by keeping the MDM2 concentration in excess of that of the peptide. […] Excitation wavelength was 280 nm with a cut-off filter of 315 nm on the emission side. The slit widths were 10 nm for excitation and emission.
At each MDM2 concentration a minimum of six traces were acquired; and the fitting in all cases for all peptides was carried out with the averaging of at least four traces. The averaged trace was always fitted to a single exponential function, which yielded, kobs. Fitting to a single exponential curve was carried out by using Kaleidagraph (Synergy Software); reported errors in kobs are from the exponential fitting. The dissociation (koff) and association (kon) rate constants were obtained from the straight line: kobs=kon×[MDM2]+koff.
Errors in both rates were from the linear fitting; the errors were always larger for koff due to the extrapolation to the y-axis intercept.

Series [3] can be described thus: TFE titrations monitored by CD (helical population). The format is physicochemical. The following applies: 5 °C, 50 mM phosphate pH 6.8, peptide 40 μM; for [TFE]1/2 (midpoint of TFE titration) / m (m-value of TFE titration): CD at 222 nm, two-state fit, ± fitting error; for % Helix in water (from ΔG in TFE titrations): from ΔG = [TFE]1/2 × m, for 1% values the error was 10%. The method, then: Unlike the above programs, which make assumptions about how the ellipticity signal relates to secondary structure content, a TFE titration allows the determination of helical content derived from the free-energy change for the equilibrium between folded (in TFE) and unfolded peptide, without any such assumptions.
(§1) For the TFE titrations, a peptide concentration of 40 μM was used. The samples were prepared the day before and left overnight at 5 °C to reach equilibrium. The experiments in aqueous solution were acquired at 5 °C, in 50 mM sodium phosphate buffer, pH 6.8. Raw ellipticity was converted to molar ellipiticity, [Θ], from which the percentage of helical populations was determined. Co-solvent concentrations were indicated in percentage of volume. […] Fitting of the titration curves, obtained by observation of the molar ellipticity at 222 nm as the TFE concentration was increased, was carried out with Kaleidagraph (Synergy software).

Series [4] can be described thus: Far-UV CD of isolated peptides in aqueous solution (helicity). The format is physicochemical. Particulars: 5 °C, 50 mM phosphate pH 6.8; for molar ellipticity at 222 nm, [Θ]222: far-UV CD; for % Helix in water ([Θ]222): from molar ellipticity at 222 nm assuming 100% helix = −31500 deg cm^2 dmol^−1. The method, then:
Spectra were acquired on a Jasco J815 spectropolarimeter (Jasco, Japan) interfaced with a Peltier unit. The instrument was periodically calibrated with (+) 10-camphorsulphonic acid. Far-UV measurements (in aqueous or TFE solutions) were performed in 0.1-cm-pathlength quartz cells (Hellma), with a response time of 2 s, a band width of 1 nm, data were collected every 0.2 nm, and a scan velocity of 50 nm/min (or 20 nm/min). […] In all peptides, two concentrations (10 μM and 70 μM) in aqueous solutions (50 mM sodium phosphate buffer, pH 6.8 […]) were used to determine whether either the shapes or the intensities of the spectra were concentration-dependent. […] In all cases (aqueous solution or TFE titrations), the corresponding blank solutions (containing only buffer, or buffer and the corresponding amount of TFE) were subtracted from the spectra.
as §1

Series [5] addresses T2, human MDM2 (residues 2–125) (human, UniProt Q00987 2-125).
T2 construct: MDM2 (murine double minute 2), human, N-terminal domain, residues 2-125; no tag is named; also called N-terminal domain of MDM2
Briefly: ITC; p53 peptide in the syringe titrated into MDM2 in the cell; Auto-iTC200; 15 °C; 50 mM Tris-HCl pH 8.0, 250 mM NaCl, 0.5 mM TCEP. Particulars: both partners purified.

T1 sequence (Q00987 2-125): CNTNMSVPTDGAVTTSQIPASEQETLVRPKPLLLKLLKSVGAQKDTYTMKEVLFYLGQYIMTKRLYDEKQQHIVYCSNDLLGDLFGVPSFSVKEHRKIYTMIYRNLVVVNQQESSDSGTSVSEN
T2 sequence (Q00987 2-125): as above

In the case of Ac-EEFDDLWKLLPEN-NH2 [P53-E18-D20], the TΔS of binding in series [1] was -2.64 kcal/mol. The same molecule displayed a ΔH of binding in series [1] (peptide titrated into MDM2) of -8.80 kcal/mol. Besides, in series [2], the kon was 4e+06 ± 2e+06 M⁻¹ s⁻¹ and the off-rate (koff) came out at 18 ± 6 s⁻¹. Further, in series [3], the “[TFE]1/2 (midpoint of TFE titration)” value is on record as 15 ± 1 % (vol:vol), the “m (m-value of TFE titration)” value was 135 ± 18 cal mol^−1(%)^−1 and the “% Helix in water (from ΔG in TFE titrations)” value is on record as 3 ± 1%. Moreover, in series [4], the “molar ellipticity at 222 nm, [Θ]222” value was −2100 deg cm^2 dmol^−1 and the “% Helix in water ([Θ]222)” value was 6.6%.
For the molecule `CC(=O)N[C@@H](CCC(=O)O)C(=O)N[C@H](C(=O)N[C@@H](Cc1ccccc1)C(=O)N[C@@H](COP(=O)(O)O)C(=O)N[C@@H](CC(=O)O)C(=O)N[C@@H](CC(C)C)C(=O)N[C@@H](Cc1c[nH]c2ccccc12)C(=O)N[C@@H](CCCCN)C(=O)N[C@@H](CC(C)C)C(=O)N[C@@H](CC(C)C)C(=O)N1CCC[C@H]1C(=O)N[C@@H](CCC(=O)O)C(=O)N[C@@H](CC(N)=O)C(N)=O)[C@@H](C)OP(=O)(O)O` [P53-pTpS], in series [4], the “molar ellipticity at 222 nm, [Θ]222” value is −2547 deg cm^2 dmol^−1 and the “% Helix in water ([Θ]222)” value worked out at 8.1%.
As to `CC(=O)N[C@@H](CCC(=O)O)C(=O)N[C@H](C(=O)N[C@@H](Cc1ccccc1)C(=O)N[C@@H](CC(=O)O)C(=O)N[C@@H](CC(=O)O)C(=O)N[C@@H](CC(C)C)C(=O)N[C@@H](Cc1c[nH]c2ccccc12)C(=O)N[C@@H](CCCCN)C(=O)N[C@@H](CC(C)C)C(=O)N[C@@H](CC(C)C)C(=O)N1CCC[C@H]1C(=O)N[C@@H](CCC(=O)O)C(=O)N[C@@H](CC(N)=O)C(N)=O)[C@@H](C)O` [P53-D20], in series [2] (ratio of kinetic rate constants, assuming two-state binding without intermediates, read-out: Kd (koff/kon)), the Kd was found to be 0.7 ± 0.2 µM. For the same molecule, in series [2], the kon was determined as 9.5e+06 ± 900000 M⁻¹ s⁻¹ and the koff was 7 ± 2 s⁻¹. In addition, in series [4], the “molar ellipticity at 222 nm, [Θ]222” value is given as −2811 deg cm^2 dmol^−1 and the “% Helix in water ([Θ]222)” value is reported as 9%.
“Ac-EeFdDLWeeLPEN-NH2 [P53-E18-D20-E24-E25, p53 Glu17-Asn29 peptide with phosphomimetics at Thr18 and Ser20 and Lys24, Leu25 mutated to Glu]”: the “binding to MDM2 in stopped-flow kinetics” value in series [2] (no exponential behaviour in any trace at any MDM2 concentration tested) is listed as “did not show any evidence of binding”. In series [4], the “molar ellipticity at 222 nm, [Θ]222” value amounted to 142.7 deg cm^2 dmol^−1 and the “% Helix in water ([Θ]222)” value amounted to 0%.
As to `CC(=O)N[C@@H](CCC(=O)O)C(=O)N[C@H](C(=O)N[C@@H](Cc1ccccc1)C(=O)N[C@@H](COP(=O)(O)O)C(=O)N[C@@H](CC(=O)O)C(=O)N[C@@H](CC(C)C)C(=O)N[C@@H](Cc1c[nH]c2ccccc12)C(=O)N[C@@H](CCCCN)C(=O)N[C@@H](CC(C)C)C(=O)N[C@@H](CC(C)C)C(=O)N1CCC[C@H]1C(=O)N[C@@H](CCC(=O)O)C(=O)N[C@@H](CC(N)=O)C(N)=O)[C@@H](C)O` [P53-pS], in series [4], the “molar ellipticity at 222 nm, [Θ]222” value is listed as −4614 deg cm^2 dmol^−1 and the “% Helix in water ([Θ]222)” value was found to be 14.6%.
For `CC(=O)N[C@@H](CCC(=O)O)C(=O)N[C@@H](CC(=O)O)C(=O)N[C@@H](Cc1ccccc1)C(=O)N[C@@H](CC(=O)O)C(=O)N[C@@H](CC(=O)O)C(=O)N[C@@H](CC(C)C)C(=O)N[C@@H](Cc1c[nH]c2ccccc12)C(=O)N[C@@H](CCCCN)C(=O)N[C@@H](CC(C)C)C(=O)N[C@@H](CC(C)C)C(=O)N1CCC[C@H]1C(=O)N[C@@H](CCC(=O)O)C(=O)N[C@@H](CC(N)=O)C(N)=O` [P53-D18-D20], the TΔS of binding in series [1] is -3.96 kcal/mol. Further, the ΔH of binding in series [1] (peptide titrated into MDM2) was -9.95 kcal/mol. Besides, in series [3], the “[TFE]1/2 (midpoint of TFE titration)” value is recorded as 9.8 ± 0.8 % (vol:vol), the “m (m-value of TFE titration)” value was 263 ± 47 cal mol^−1(%)^−1 and the “% Helix in water (from ΔG in TFE titrations)” value was found to be 1%. Besides, in series [4], the “molar ellipticity at 222 nm, [Θ]222” value is listed as −2811 deg cm^2 dmol^−1 and the “% Helix in water ([Θ]222)” value came out at 9%.
`CC(=O)N[C@@H](CCC(=O)O)C(=O)N[C@@H](CC(=O)O)C(=O)N[C@@H](Cc1ccccc1)C(=O)N[C@@H](CCC(=O)O)C(=O)N[C@@H](CC(=O)O)C(=O)N[C@@H](CC(C)C)C(=O)N[C@@H](Cc1c[nH]c2ccccc12)C(=O)N[C@@H](CCCCN)C(=O)N[C@@H](CC(C)C)C(=O)N[C@@H](CC(C)C)C(=O)N1CCC[C@H]1C(=O)N[C@@H](CCC(=O)O)C(=O)N[C@@H](CC(N)=O)C(N)=O` [P53-D18-E20]: in series [1], the TΔS of binding was -3.03 kcal/mol. Also, the Kd in series [1] (peptide titrated into MDM2, read-out: Log KA (converted)) is 5.89 µM. In series [1] (peptide titrated into MDM2), this molecule returned a ΔH of binding of -9.90 kcal/mol. Moreover, in series [3], the “[TFE]1/2 (midpoint of TFE titration)” value was 33 ± 5 % (vol:vol), the “m (m-value of TFE titration)” value is listed as 112 ± 70 cal mol^−1(%)^−1 and the “% Helix in water (from ΔG in TFE titrations)” value stood at 1%. Further, in series [4], the “molar ellipticity at 222 nm, [Θ]222” value is on record as −3597 deg cm^2 dmol^−1 and the “% Helix in water ([Θ]222)” value worked out at 11.4%.
Regarding Ac-EDFSDLWKLLPEN-NH2 [Ac-EdFSDLWKLLPEN-NH2 (P53-D18)], in series [5], the Kd was 19 µM, the “Log KA” value turned out to be 4.72 and the dH is -18.4 kcal/mol.
Ac-EDFDDLWKLLPEN-NH2 [Ac-EdFdDLWKLLPEN-NH2 (P53-D18-D20)] yielded a dH in series [5] of -9.95 kcal/mol.
Regarding Ac-EDFEDLWKLLPEN-NH2 [Ac-EdFeDLWKLLPEN-NH2 (P53-D18-E20)], the dH in series [5] is -9.9 kcal/mol.

The values are drawn from publication PMC6345774, “Kinetic and thermodynamic effects of phosphorylation on p53 binding to MDM2” (Scientific Reports, 2019).
